Experimental data reported in US20130158024A1, “TRICYCLIC NECROSTATIN COMPOUNDS” (priority 2005, published 2013).
“Also recorded” adds a separate entry of the source. Where two headings read alike, the source gives them in different places.

Experiments:
healthy cells = assay: Effect of compound alone on physiology of healthy cells (ATP, morphology, cell cycle, mRNA, ROS); format: cell-based
Method: Results of the forward and side scatter FACS analysis are shown. In addition, percentage of PI negative viable cells (±SD value) was determined in each sample. […] Numbers of PI negative viable cells (±SD value) in each sample are shown. […] FADD-deficient Jurkat cells were treated as described in FIG. 31A and cell cycle profiles were analyzed by PI DNA content FACS analysis. […] Cell viability was determined using ATP assay. Numbers represent viability normalized to that of the corresponding DMSO-treated cells. Error bars indicate standard deviation values. […] Cells were fixed, embedded and analyzed using electron microscopy. Representative images are shown. […] Cells were stained with dyhydroethydium (Molecular Probes) and analyzed by FACS. Percentages (±SD value) of cells with increased ROS levels are shown. […] Red dots are internal reference controls.
Cells were fixed and stained with anti-giantin (Golgi, green)/anti-KDEL (ER, red) antibodies (FIG. 32A), anti-β-tubulin (tubulin, green)/TO-PRO-3 dye (nuclei, blue)/phalloidin-TRITC (actin, red) (FIG. 32B) and anti-cytochrome c (mitochondria, red)/TO-PRO-3 (nuclei, blue) (FIG. 32C). […]
After the appropriate treatment, we washed Jurkat cells once, resuspended them in PBS, and fixed the cells by adding four volumes of ice cold 100% ethanol. […] We analyzed the data using ModFit software (Verity Software House).

U937 cells [1] = assay: Oxidative stress (menadione) induced death of U937 cells, ATP assay; format: cell-based, human; conditions: 250 μM menadione, 24 hours
Method: Viability of TNFα/zVAD/DMSO or manadione/DMSO blank treated cells is also shown (- - -). Viability was determined using ATP-Lite-M assay (Packard). Numbers represent percentages of live cells. The values were normalized relative to the zVAD or DMSO treated controls, which were set as 100% viability.
In this and subsequent panels, cell viability was determined via ATP assay. Numbers represent viability normalized to that of the DMSO-treated cells in the absence of TNFα and menadione. Throughout, error bars represent standard deviations. […] Representative images are shown. […] Protein lysates were subjected to western blotting with antibodies to LC3 and to tubulin. The ratio of LC3-II to tubulin signals was calculated (“Ratio”) and normalized to the value in the control sample. […] Alternatively, cells were treated with 2 μM rapamycin. […] Numbers represent viability normalized to that of the compound-treated cells in the absence of TNFα. In FIG. 28H, expression of beclin-1 (“Bec”) and tubulin (“Tub”) in the stable populations of cells in FIG. 28G was analyzed by western blotting.

[2] = tested on: FADD-deficient Jurkat T cells treated with TNF-α; assay: Inhibition of necroptosis (CICD) in FADD-deficient Jurkat T cells treated with TNF-α, ATP-based viability; format: cell-based, human
U937 cells [3] = assay: Necrosis of U937 cells induced by TNFα and zVAD.fmk (primary and secondary screen), ATP assay; format: cell-based, human; conditions: U937, 72 hours
Method: We plated U937 cells in 384-well plates at 5,000-10,000 cells per well in 40-μl phenol red-free RPMI 1640 medium containing 100 μM zVAD.fmk and 40 ng ml^−1 human TNFα using a Multidrop dispenser (Thermo Electron). We added 100 nl of the DiverSetE (5 mg ml^−1 in DMSO, Chembridge) using a Seiko-based custom-built pin transfer robot (Institute of Chemistry and Cell Biology, Harvard Medical School). After 72 hours, we assessed cell viability using a luminescence-based ATP assay (ATPLite-M, PerkinElmer). We also dispensed cells not treated with TNFα in each plate as a positive control. We purchased Nec-1 and other preliminary positive hits from Chembridge for individual retesting.
Using a known paradigm of death receptor mediated caspase-independent cell death in human U937 cells, we established a high-throughput screen in 384 well format for small molecule inhibitors of caspase-independent cell death (CICD). In this system, U937 cells were induced to undergo CICD in the presence of TNFα and zVAD.fmk, and the rate of cell death was determined by an ATP-Lite-M assay, a commercial luminescence-based assay measuring cellular ATP levels (Packard). U937 cells were chosen because these cells can be induced to undergo CICD very efficiently upon TNFα/zVAD treatment in the absence of additional, stress-inducing sensitizing stimuli, such as CHX, making this system perfectly suited for reliable identification of CICD inhibitors. Furthermore, rapid suspension growth kinetics of U937 cells results in the availability of large quantities of cells, which translates into robust signals ideal for high throughput screening. ATP-Lite-M assay was chosen because among all the different assay systems tested, it gives the most consistent and robust signal, which is also critical for high throughput screening. Exposure of U937 cells to TNFα alone led to partial cell death, whereas co-treatment with TNFα and caspase inhibitor zVAD.fmk produced significant increase in the amount of cell death and ATP loss consistent with the published observations. In addition, in the presence of zVAD.fmk, the morphology of cell loss changed from apoptosis with cell shrinkage, nuclear fragmentation, membrane blebbing to necrosis, characterized by cell swelling, increase in cytosolic density, and early loss of plasma membrane integrity. Other cell death assays, such as an MTT assay (mitochondrial metabolism) and Sytox assay (permeability of the plasma membrane), were used as alternative means to validate the screen, and consistently produced results similar to those obtained using ATP-Lite-M assay, which confirmed that the ATP-Lite-M assay can be used to accurately measure the extent of CICD.
In a primary screen, U-937 cells (5×10^5 or 7.5×10^5 cells/ml) were first exposed to zVAD-fmk (100 μM). Thirty minutes later the same cells were exposed to a chemical compound from the library (5 mg/ml, dissolved in 0.1-0.5 μl of DMSO, giving a final DMSO concentration of 0.3% to 1.5%). After an additional thirty minutes, TNFα (40 ng/ml) was added to the cell culture medium. The cells were then incubated at 37 C for 72 hours, and were then assayed for cellular ATP levels. […] Compounds which maintained cellular ATP levels were compounds which blocked necrosis triggered by zVAD-fmk and TNFα.
In a secondary screen, the compounds identified from the first screen, above, to decrease necrosis induced by zVAD-fmk and TNFα were assayed for their potency. Serial dilution of each chemical compound was performed and the compounds were administered to U-937 cells, as per the primary screen. The concentrations of each compound were 70 μM, 23 μM, 8 μM, and 2.5 μM. The level of necrosis occurring in response to zVAD-fmk, TNFα, and the various concentrations of chemical compounds was assayed as described above for the primary screen.

Substance: methylthiohydantoin-tryptophane [Nec-1]
- general effect in healthy cells, in words (healthy cells): does not significantly affect gene expression in Jurkat cells; also recorded: had no general effect in healthy cells
- protection from menadione induced cell death, in words (U937 cells [1]): did not block the “classic” oxidative stress-induced necrosis caused by menadione
- EC50 ([2]; 10 ng/mL human TNF-α, 24 hours, ATP-based viability, EC50 ± SD from at least two independent experiments, read-out: EC50 (μM) for inhibition of necroptosis): 0.05 µM
- antinecroptotic (anti-CICD) activity, in words ([2]; FADD-deficient Jurkat cells, TNFα): allowed proliferation of TNFα-treated FADD-deficient cells at a rate indistinguishable from untreated cells; also recorded: prevented the death of TNFα-treated FADD-deficient Jurkat cells
- EC50 ([2]; Jurkat FADD deficient cells treated with TNFα, read-out: EC50): 0.494 µM
- EC50 ([2]; concentration required to rescue 50% of cell death, TNFα for 36 hours, ATP assay, read-out: EC50): 0.494 µM
- inhibition of necrosis induced by TNFα/zVAD.fmk, in words (U937 cells [3]): inhibition of cell death of U937 cells treated with TNFα and zVAD.fmk for 72 hours; also recorded: provided expected protection against TNFα/zVAD.fmk; also recorded: efficiently blocked necroptotic death in U937 cells in a concentration-dependent fashion
